102 compounds from ChEMBL document CHEMBL3507680, “University of Dundee, Gates Library screen for HepG2 cell viability” can be followed below.

Molecules are shown by their SMILES.

The series is described as follows: Human HepG2 cell viability assay in 384 well format. The class given is toxicity, cell-based. Details: dose 125 nL, time 70.5 hour; concentration not given beside the values. Particulars: HepG2 cells, read-out: Inhibition.
On to `CCn1c(CNCC2CCCN2c2cccnn2)nc2ccccc21` (configuration not stated), for which the cytotoxicity at 70.5 h was -9.03%.
On to `CCc1nc(CN(C)C2CCN(CC(F)(F)F)C2)no1` (configuration not stated), for which the cytotoxicity at 70.5 h is -4.19%.
Consider `Cc1cccnc1CNC(=O)N(CCCO)C1CCc2ccccc21` (configuration not stated), for which the cytotoxicity at 70.5 h was -12.3%.
As for `CC(C)Cc1nc(CN2CCOC(Cn3cccn3)C2)no1` (configuration not stated), the cytotoxicity at 70.5 h is 15.4%.
The result for `CCc1nc(C2CCCN2Cc2nccn2CC(F)(F)F)no1` (configuration not stated) reads 1.64%.
Turning to `Cc1cccc(CNC(=O)N(CCCO)C2CCc3ccccc32)n1` (configuration not stated), the cytotoxicity at 70.5 h was -1.88%.
With `Cc1nc(C)n(CC2CN(Cc3noc(C4CC4)n3)CCO2)n1` (configuration not stated), the cytotoxicity at 70.5 h is -6.68%.
As for `Cc1ncc2c(n1)CCN(CCCc1nc3ccccc3o1)C2`, the cytotoxicity at 70.5 h is -2.27%.
In the case of `COc1ccc(F)cc1C(C)NC(=O)NCCCn1cncn1` (configuration not stated), the cytotoxicity at 70.5 h is -2.2%.
In the case of `CCS(=O)(=O)c1ccccc1C(=O)N1CCCC(n2cccn2)C1` (configuration not stated) it was 18.2%.
In the case of `CC(C)c1nc(CN2CCOC(Cn3cccn3)C2)no1` (configuration not stated) it was 1.63%.
The result for `CC(C)(C)c1nc(CN2CCOC(Cn3cccn3)C2)no1` (configuration not stated) reads 0.39%; that for `CC(C)c1nnc2n1CCN(C(=O)c1cccc(S(C)(=O)=O)c1)C2`, 17%; that for `CCc1nnc2n1CCN(C(=O)c1ccnc(N(C)C)c1)C2`, -2.04%.
Regarding `Cc1ccc(NC2CCN(C(=O)c3cccc4cccnc34)CC2)nn1`, the cytotoxicity at 70.5 h was -6.15%.
The result for `Cc1nc(C2CCCN(C(=O)c3c(C)nn4cccnc34)C2)no1` (configuration not stated) reads -4.04%; that for `CC(C)c1nc(CN2CCCN(Cc3nccn3C)CC2)no1`, 18.1%; that for `Cc1nc(CN2CCCC(N(C)Cc3nccn3C)C2)no1` (configuration not stated), 21.6%.
Turning to `Cc1cnc(CN(C)C2CCN(CCCc3ccccc3)C2)o1` (configuration not stated), the cytotoxicity at 70.5 h was 10%.
On to `Cc1cc(CN2CCCC(c3cc(C(F)(F)F)[nH]n3)C2)no1` (configuration not stated), for which the cytotoxicity at 70.5 h was -15.8%.
For `N#Cc1ccc(OCCN2CCn3c(nnc3C3CC3)C2)cc1`, the cytotoxicity at 70.5 h stood at 6.25%.
In the case of `COc1ccc(C)cc1CN(C)CC(=O)NC1(C)CCS(=O)(=O)C1` (configuration not stated) it was -15.5%; in that of `O=C(NCCNC(=O)c1scnc1Cl)c1cccs1`, -14.2%.
With `O=C(NCCNC(=O)c1scnc1Cl)c1ccccc1Cl`, the cytotoxicity at 70.5 h is -8.93%.
The result for `Cc1cnc(C(=O)N2CCCN(c3nc(C)cs3)CC2)cn1` reads -7.69%; that for `NC(=O)CN1CCCN(C(=O)Cc2ccc3c(c2)OCCO3)CC1`, -11%; that for `CCc1nnc2n1CCN(Cc1nnc(-c3occc3C)o1)C2`, -4.81%.
For the compound `Cc1nc(C)n(CC2CCCN2Cc2cn3cc(Cl)ccc3n2)n1` (configuration not stated), the cytotoxicity at 70.5 h is -1.76%.
Turning to `CCc1ccc(C(=O)N2CCC(Nc3ccc(C)nn3)CC2)o1`, the cytotoxicity at 70.5 h is -4.81%.
As for `COc1ccc(S(=O)(=O)N2CCc3ccc(F)cc32)cc1C(=O)O`, the cytotoxicity at 70.5 h was 1.61%.
In the case of `Cc1nc(CN2CCCC(c3cc(C(F)(F)F)[nH]n3)C2)cs1` (configuration not stated) it was -3.08%; in that of `Cc1csc(N2CCCN(C(=O)c3c(C)noc3C)CC2)n1`, -8.3%.
Turning to `Cc1csc(N2CCN(C(=O)c3c(C)oc(C)c3C)CC2)n1`, the cytotoxicity at 70.5 h is -1.28%.
In the case of `Cc1cc(C)n(CC2CCCN2C(=O)c2ccc3nncn3c2)n1` (configuration not stated) it was -4.03%; in that of `CC1CN(C)CCN1Cc1cccc(C(=O)N(C)C)c1` (configuration not stated), 33.2%; in that of `Cn1cc(CC(=O)N2CCCC(n3cncn3)C2)cn1` (configuration not stated), -3.54%.
For `CCC1CN(C(=O)NCc2cccnc2-n2cccn2)CCO1` (configuration not stated), the cytotoxicity at 70.5 h was -5.61%.
The result for `O=C(c1cnn(-c2ccccc2)n1)N1CCCC(n2cccn2)C1` (configuration not stated) reads -10.8%; that for `CCOCCN1CCN(Cc2cccc(C(=O)N(C)C)c2)CC1CC` (configuration not stated), -6.73%; that for `O=C(NCc1ccccc1-n1cccn1)N1CCC(N2CCCC2)C1` (configuration not stated), -6.47%.
In the case of `c1ccc(OCCN2CCc3c(ncn3C3CC3)C2)cc1` it was -4.85%.
The result for `COCCN1CCN(Cc2cccc(C(=O)N(C)C)c2)CC1` reads -4.26%; that for `Cc1cc(C)n(CC2CCCCN2C(=O)c2ccsc2)n1` (configuration not stated), -2.03%; that for `Cc1nn(C)c(C)c1CCC(=O)N1CCCC(n2cncn2)C1` (configuration not stated), -6.31%.
For `CCN(Cc1ccc2c(c1)OCO2)C(=O)Cn1cccnc1=O`, the cytotoxicity at 70.5 h is -0.305%.
Turning to `CCN(Cc1ccc2c(c1)OCCO2)C(=O)Cn1cccnc1=O`, the cytotoxicity at 70.5 h is -5.36%.
The result for `CC(=O)NC1CCCN(C(=O)NCc2ccc(-n3cccn3)cc2)C1` (configuration not stated) reads -2.4%; that for `CCc1noc(C(C)N2CCN(C(=O)CN3CCOCC3)CC2)n1` (configuration not stated), 0.684%.
For `CN1CCCN(C(=O)NCc2cccnc2-n2cccn2)CC1`, the cytotoxicity at 70.5 h was -0.342%.
In the case of `CCC1CCCN(C(=O)NCc2cccnc2-n2cccn2)C1` (configuration not stated) it was -4.16%.
In the case of `CNC(=O)COc1ccc(CNCc2c(C)nn(C)c2N(C)C)cc1`, the cytotoxicity at 70.5 h is -0.911%.
The result for `Cc1nn(-c2ccccc2)nc1C(=O)N1CCCC(n2cccn2)C1` (configuration not stated) reads -1.86%; that for `O=C(CN1CCCC(Cn2cncn2)C1)NCCCc1ccccc1` (configuration not stated), -2.31%; that for `O=C(CN1CCCC(Cn2cncn2)C1)NCCc1cccs1` (configuration not stated), 0.827%.
For the compound `Cc1ccc(CNC(=O)CN2CCOC(Cn3cncn3)C2)s1` (configuration not stated), the cytotoxicity at 70.5 h is -2.32%.
Take `CCNc1cc2c(nn1)CCN(C(=O)c1cc3cc(C)ccc3o1)C2`: the cytotoxicity at 70.5 h came out at 5.36%.
On to `CCc1nc(C2CCCN2C(=O)c2ccc3c(c2)[nH]c(=O)n3C)no1` (configuration not stated), for which the cytotoxicity at 70.5 h came to 2.37%.
As to `COc1cc(C)nc(N2CCN(C(=O)CNC(C)(C)C)CC2)n1`, the cytotoxicity at 70.5 h was -15.6%.
For `O=C1C(NCc2nnc3n2CCCC3)CCN1c1ccccc1` (configuration not stated), the cytotoxicity at 70.5 h was -5.59%.
Turning to `CC(C)(C)c1n[nH]c(C2CN(C(=O)c3ccsc3)CCO2)n1` (configuration not stated), the cytotoxicity at 70.5 h is -16.5%.
In the case of `CC(C)(C)c1n[nH]c(C2CN(C(=O)CCc3cscn3)CCO2)n1` (configuration not stated) it was -21.1%.
The result for `CCn1nc2c(cc1=O)CN(Cc1nc(CCOC)no1)CC2` reads -16%; that for `CCOc1cc(CNC(=O)N2CCC(Cc3cnn(C)c3)C2)ccn1` (configuration not stated), -10.6%; that for `Cc1cc(C)n(CC2CCCN2CCc2ccncc2)n1` (configuration not stated), 17.9%.
As to `Cc1cnn(CC2CCCN2C(=O)c2ccc(OC(C)C)nc2)c1` (configuration not stated), the cytotoxicity at 70.5 h is -15%.
The result for `O=C1C(NCc2nnc3n2CCCC3)CCN1CC(F)(F)F` (configuration not stated) reads 20.6%; that for `Cc1nccn1C1CCCN(C(=O)COCC(F)(F)F)C1` (configuration not stated), -7.9%; that for `COc1cccc(CCNCc2c(C)nn(C)c2N(C)C)c1`, -4.91%.
`COc1cc(CNCc2c(C(C)C)nn(C)c2N(C)C)ccn1`: the cytotoxicity at 70.5 h is -5.93%.
The result for `Cc1cc(C)n(CC2CN(Cc3cscn3)CCO2)n1` (configuration not stated) reads -4.76%; that for `CC(C)c1nn(C)c(N(C)C)c1CNCc1ccccc1CN(C)C`, -0.417%.
In the case of `COCc1cccc(CNC(=O)CN2CCCC2c2noc(C)n2)c1` (configuration not stated) it was -13.1%; in that of `Cc1noc2ncc(C(=O)N(CC3CCOC3)C3CC3)cc12` (configuration not stated), -6.78%; in that of `Cc1cc(C)c(CNC(=O)NCC2CCCN2C)c(=O)[nH]1` (configuration not stated), 19%.
As for `Cc1cc(C)c(CNC(=O)N(C)CC2CCCCO2)c(=O)[nH]1` (configuration not stated), the cytotoxicity at 70.5 h was -3.49%.
Turning to `Cc1cc(C)c(CNC(=O)N2CCN(c3ncccn3)CC2)c(=O)[nH]1`, the cytotoxicity at 70.5 h amounted to 0.0542%.
The result for `Cc1cc(C)c(CNC(=O)NCC2CCCO2)c(=O)[nH]1` (configuration not stated) reads 26.7%.
The result for `Cc1cnn(CC2CN(CC(=O)Nc3nnc(C)s3)CCO2)c1` (configuration not stated) reads -9.05%; that for `Cc1ccc(NC2CCN(C(=O)c3cc[nH]n3)CC2)nn1`, -11%; that for `CC(C)c1ccc(C(O)Cn2c(=O)c(C#N)cn(C3CC3)c2=O)cc1` (configuration not stated), -3.45%.
In the case of `c1ncn(CC2CCCCN2Cc2noc(C3CC3)n2)n1` (configuration not stated) it was 11.3%; in that of `Cc1ccc(C(=O)Nc2cn[nH]c2)cc1C`, -1.12%.
With `Cc1nc(C)c(CC(=O)Nc2nnc(C)s2)c(=O)[nH]1`, the cytotoxicity at 70.5 h is 0.383%.
As for `CCn1cc(NC(=O)NCC(c2cccc(F)c2)N(C)C)cn1` (configuration not stated), the cytotoxicity at 70.5 h is -4.54%.
Consider `Cc1ncsc1C(=O)N(C)Cc1ccncc1`, for which the cytotoxicity at 70.5 h is 28.4%.
Turning to `COc1ccc(C)cc1CNCc1ccc(-n2nc(C)cc2C)nc1`, the cytotoxicity at 70.5 h stood at 5.93%.
As to `Cc1ccc(CNCc2ccc(-n3nc(C)cc3C)nc2)cc1`, the cytotoxicity at 70.5 h is -6.83%.
In the case of `Cc1ccc(C)c(OC2CCN(C(=O)c3ccc(O)nc3)CC2)c1`, the cytotoxicity at 70.5 h was determined as 2.43%.
In the case of `Cc1ccc(C(=O)N2CCC(Oc3ccc(F)cc3F)CC2)c(=O)[nH]1` it was 31.6%; in that of `CC(C)(CNC(=O)CCOc1cccc(F)c1)C(N)=O`, 2.27%; in that of `CCCN(CC1COc2ccccc2O1)C(=O)CCn1cncn1` (configuration not stated), -1.87%.
The result for `COc1cccc(COCC(=O)N2CCC(CC(N)=O)CC2)c1` reads 4.02%.
For `Cc1cn2c(n1)CCC(NC(=O)c1ccc(CS(C)(=O)=O)o1)C2` (configuration not stated), the cytotoxicity at 70.5 h was -2.86%.
Take `c1ccc(-c2nccc(CNCC3CCCN3c3cccnn3)n2)cc1` (configuration not stated): the cytotoxicity at 70.5 h was 39.7%.
As for `Cc1nc(CNCC2CCCN2c2cccnn2)cs1` (configuration not stated), the cytotoxicity at 70.5 h came to 2.56%.
In the case of `Cn1cc(Cl)cc1C(=O)N1CCCN(Cc2cccs2)CC1` it was 4.57%; in that of `N#CC1(C(=O)NCCCNc2ccc(C(F)(F)F)cn2)CCCC1`, 5.77%; in that of `Cc1cnn(CCCNC(=O)N2CCCCC(N3CCCC3)C2)c1` (configuration not stated), -6.01%.
In the case of `CCN(CC)C(=O)CN(C)C1CCc2ccccc21` (configuration not stated) it was -3.62%; in that of `CCOCC(O)CN1CCN(C(=O)Cc2ccc3c(c2)CCO3)CC1` (configuration not stated), 0.715%; in that of `O=C(Nc1cnn(CCN2CCOCC2)c1)c1ccccc1O`, 0.705%.
Turning to `CCn1c(CN2CCCN(C(=O)OC)CC2)nc2c(F)cccc21`, the cytotoxicity at 70.5 h turned out to be 18.8%.
